The source of these data is patent publication US8987257B2 (Novartis AG, priority 2011, dated 2015).

A value given as a limit tells only on which side of the number the result lay.

The term IC50 denotes the concentration needed to halve the response being measured. In general, EC50 refers to the concentration needed to bring the measured effect to its halfway point.

The target of one test is FRAP1/mTOR (Homo sapiens (Human), UniProt P42345). Kind of test: Test 2: mTOR Biochemical Assay (FRAP1/mTOR TR-FRET tracer assay). The settings on record: mTOR Kinase Tracer 314. The format is binding. A general note: TR-FRET usually uses a lanthanide donor and a delayed reading to cut background.
The next test addresses PI3Kα (Homo sapiens (Human), UniProt P42336). Kind of test: Test 1: PI3 Kinase Assay (PI3K KinaseGlo assay). Format: biochemical. The settings on record: 1 μM ATP. On the technique in general: Kinase-Glo measures the ATP left after a reaction by luminescence.
Test [1] deals with constitutively active mTOR. Kind of test: Test 3: TSC Assay (high content imaging of phospho-S6 (240/244) in TSC1−/− MEFs). The format is cell-based. The settings on record: Mus musculus, pS6 240/244 staining, 2 hrs compound treatment.
Description: This assay generates IC50 values for compounds that inhibit mTOR.
Quantification of pS6 Staining Using High-Content Imaging and Analysis
Day 0: Cell plating. Subconfluent TSC1−/− MEFs are harvested by trypsinization, resuspended in growth medium, and counted. […] The plates are briefly spun down and placed at 37° C. and 5% CO2. • 2. Day 1: Cell plates are washed into a PBS starve solution (contains glucose, sodium bicarbonate, HEPES and phenol red) using a 384-well plate washer. The wash protocol aspirates the volume down to 30 μL/well before dispensing 60 μL/well of the PBS starve solution. Aspiration and dispensing steps are repeated 8 times and a final volume of 30 μL/well is left. The cell plates are placed at 37° C. and 5% CO2 for 2 hrs. • Compound treatment. Compound dose responses are prepared in DMSO. The dose responses are then diluted 1:50 in medium. 10 ul of the diluted compound is added to 30 ul of cells, yielding a final 1:200 dilution of the original compound and final of 0.5% DMSO. Compound-treatments are performed in triplicates. The plates are placed at 37° C. and 5% CO2 for 2 hrs. Cells are then fixed by adding 10 μL/well 5× concentrated Mirsky's fixative. […] The cell plates are briefly spun down and incubated for 1 h at room temperature. Cells are then washed using a 384-well plate washer using a protocol which aspirates the volume down to 30 μL/well before dispensing 60 μL/well 1×TBS. Aspiration and dispensing steps are repeated 8 times and then an additional aspiration step leaves a final volume of 10 μL/well. Block buffer (1×TBS+0.1% Triton X-100+0.1% BSA) is then added at 25 μL/well and the plates are incubated at room temperature for 30 min. The cell plates are then aspirated down to 10 μL/well. […] Plates are incubated overnight at 4° C. • 3. […] The bottom of the plate is cleaned with 70% ethanol and then imaged using the InCell 1000 automated epifluorescence microscope. […] Cy5 images are acquired using an excitation of 620 nm (Chroma 620—60× filter), an emission of 700 nm (Chroma HQ700—75M filter) and an exposure time of 200 ms. A double band pass mirror is used for all images. • 4. Image analysis: The InCell Analysis software is used to analyze the images using the Dual Object algorithm. […] The Cy5 fluorescence intensity inside the collar is measured (cell intensity) and results are reported on an “Average per cell” basis. • 5. IC50 calculation: IC50s are calculated by plotting the cell intensity values on the y-axis with dose response values on the x-axis. IC50 values represent compound potency against mTOR.
For the next test, the system named is H4 mCherry-GFP-LC3 cells. Kind of test: Test 4: Autophagy Assay (mCherry-GFP-LC3 reporter, high-content imaging). Format: cell-based. The note with it: Homo sapiens, 16-18 h. An excerpt:
Autophagy is a catabolic pathway that degrades bulk cytosol in lysosomal compartments enabling amino acids and fatty acids to be recycled. […] To quantify autophagy induction by mTOR inhibitors, we use a mCherry-GFP-LC3 reporter which is amenable to retroviral delivery into mammalian cells, stable expression and analysis by fluorescence microscopy.
Described hereinafter is an imaging protocol and image recognition algorithm to visualize and measure changes in the autophagic pathway.
Quantification of Autophagy Using High-Content Imaging and Analysis
• 1. Day 0: Cell plating. Subconfluent H4 mCherry-GFP-LC3 cells are harvested by trypsinization, resuspended in growth medium, and counted (H4 cells: Human neuroglioma cell line (ATCC)). A cell suspension of 66′000 cells/mL is prepared and 30 μL are added into the wells of a 384-well plate using an electronic multichannel pipette. […] The cell plates are briefly spun down and placed at 37° C. and 5% CO2. • 2. Day 1: Compound treatment. Compound dose responses are prepared in DMSO. The dose responses are then diluted 1:50 in medium. 10 ul of the diluted compound is added to 30 ul of cells, yielding a final 1:200 dilution of the original compound and final of 0.5% DMSO. Compound-treatments are performed in triplicates. The 384-well plates are placed at 37° C. and 5% CO2. Compound treatment is performed for 16-18 h (see Note 1). • 3. Day 2: Cell fixation. Cells are fixed by adding 10 μL/well 5× concentrated Mirsky's fixative supplemented with 25 μg/mL Hoechst33342. […] The 384-well plate is briefly spun down and incubated for 1 h at room temperature. Cells are then washed using a 384-well plate washer using a protocol which aspirates the volume down to 10 μL/well before dispensing 100 μL/well 1×TBS. Aspiration and dispensing steps are repeated 4 times and a final volume of 100 μL/well is left. The plate is sealed using an adhesive PCR foil. • 4. Imaging. The bottom of the plate is cleaned with 70% ethanol and then imaged using the InCell 1000 automated epifluorescence microscope. 20× magnification is used and 4 different areas (fields) are imaged per well, this typically captures a total of around 400 cells per well. Hoechst33342 images are acquired using an excitation of 360 nm (D360—40× filter), an emission of 460 nm (HQ460—40M filter) and an exposure time of 150 ms. GFP images are acquired using an excitation of 475 nm (S47520× filter), an emission of 535 nm (HQ535—50M filter) and an exposure time of 1 s. mCherry images are acquired using an excitation of 535 nm (HQ535—50× filter), an emission of 620 nm (HQ620—60M filter) and an exposure time of 1 s. A quadruple band pass mirror is used for all images. • 5. Image analysis. The InCell Analysis software is used to analyze the images using the Multi Target Analysis algorithm. First, nuclei are detected in the Hoechst33342 image using top-hat segmentation and a minimal nuclear area of 50 μm^2. Cells are defined using a collar of 10 μm around the nuclei. Second, puncta (organelles) are identified in the mCherry image inside the cells using multi-top-hat segmentation. Third, the mask of the mCherry puncta is transferred onto the GFP image. Fourth, the GFP fluorescence intensity inside the mCherry puncta mask is measured (reference intensity). • 6. The ‘organelles’ parameter reflects mCherry-positive puncta of the mCherry-GFP-LC3 reporter and is used to calculate ‘LC3 puncta/cell’. For this purpose, the number of organelles is calculated per cell and averaged over all the cells in a given well (average per cell basis). mCherry-positive LC3 puncta numbers (y-axis) are plotted against the compound dose response values (x-axis) and EC50 values are calculated for each compound. EC50 values represent compound potency in terms of autophagy activation (e.g. increase in mCherry-positive LC3 puncta count). Notes • 1. Autophagy-modulation and redistribution of mCherry-GFP-LC3 can be already observed after a compound treatment time of 3-4 h. […]

Setting [2] is: Table 4 (unit inferred), mCherry-positive LC3 puncta/cell.
Where [3] appears, read: Table 1, mCherry-positive LC3 puncta/cell.

PI3Kα, sequence (P42336 other isoform, or with tags, fused parts or gaps): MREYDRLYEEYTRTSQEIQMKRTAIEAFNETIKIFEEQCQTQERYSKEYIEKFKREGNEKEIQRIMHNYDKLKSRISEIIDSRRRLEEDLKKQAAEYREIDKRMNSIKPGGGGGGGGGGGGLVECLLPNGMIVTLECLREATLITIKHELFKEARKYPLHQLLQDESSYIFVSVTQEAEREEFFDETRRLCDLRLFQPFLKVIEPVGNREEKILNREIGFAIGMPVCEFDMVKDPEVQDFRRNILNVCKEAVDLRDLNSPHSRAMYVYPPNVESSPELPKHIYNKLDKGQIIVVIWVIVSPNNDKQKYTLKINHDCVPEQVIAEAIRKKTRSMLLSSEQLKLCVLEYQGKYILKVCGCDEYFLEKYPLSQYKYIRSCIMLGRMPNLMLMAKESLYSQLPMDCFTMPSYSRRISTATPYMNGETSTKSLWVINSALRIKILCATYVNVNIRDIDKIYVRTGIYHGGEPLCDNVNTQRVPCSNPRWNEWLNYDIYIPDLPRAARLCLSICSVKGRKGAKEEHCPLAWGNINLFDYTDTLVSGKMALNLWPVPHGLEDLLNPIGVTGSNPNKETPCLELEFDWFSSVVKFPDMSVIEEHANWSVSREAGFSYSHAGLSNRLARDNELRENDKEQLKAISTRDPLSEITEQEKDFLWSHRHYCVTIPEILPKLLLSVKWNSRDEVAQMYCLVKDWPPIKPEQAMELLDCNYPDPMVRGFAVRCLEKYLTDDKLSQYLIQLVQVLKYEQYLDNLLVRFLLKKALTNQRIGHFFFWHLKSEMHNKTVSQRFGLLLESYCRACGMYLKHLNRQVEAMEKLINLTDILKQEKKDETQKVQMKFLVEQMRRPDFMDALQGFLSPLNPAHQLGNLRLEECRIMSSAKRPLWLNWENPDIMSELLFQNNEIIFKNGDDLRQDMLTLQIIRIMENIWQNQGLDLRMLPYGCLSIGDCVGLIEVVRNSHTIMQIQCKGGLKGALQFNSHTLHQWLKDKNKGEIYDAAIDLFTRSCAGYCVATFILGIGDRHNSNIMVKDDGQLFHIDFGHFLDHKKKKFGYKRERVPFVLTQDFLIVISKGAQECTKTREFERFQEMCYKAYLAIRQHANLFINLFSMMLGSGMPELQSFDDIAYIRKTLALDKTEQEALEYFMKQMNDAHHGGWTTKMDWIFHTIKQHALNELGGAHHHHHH
FRAP1/mTOR, sequence (P42345 1360-2549): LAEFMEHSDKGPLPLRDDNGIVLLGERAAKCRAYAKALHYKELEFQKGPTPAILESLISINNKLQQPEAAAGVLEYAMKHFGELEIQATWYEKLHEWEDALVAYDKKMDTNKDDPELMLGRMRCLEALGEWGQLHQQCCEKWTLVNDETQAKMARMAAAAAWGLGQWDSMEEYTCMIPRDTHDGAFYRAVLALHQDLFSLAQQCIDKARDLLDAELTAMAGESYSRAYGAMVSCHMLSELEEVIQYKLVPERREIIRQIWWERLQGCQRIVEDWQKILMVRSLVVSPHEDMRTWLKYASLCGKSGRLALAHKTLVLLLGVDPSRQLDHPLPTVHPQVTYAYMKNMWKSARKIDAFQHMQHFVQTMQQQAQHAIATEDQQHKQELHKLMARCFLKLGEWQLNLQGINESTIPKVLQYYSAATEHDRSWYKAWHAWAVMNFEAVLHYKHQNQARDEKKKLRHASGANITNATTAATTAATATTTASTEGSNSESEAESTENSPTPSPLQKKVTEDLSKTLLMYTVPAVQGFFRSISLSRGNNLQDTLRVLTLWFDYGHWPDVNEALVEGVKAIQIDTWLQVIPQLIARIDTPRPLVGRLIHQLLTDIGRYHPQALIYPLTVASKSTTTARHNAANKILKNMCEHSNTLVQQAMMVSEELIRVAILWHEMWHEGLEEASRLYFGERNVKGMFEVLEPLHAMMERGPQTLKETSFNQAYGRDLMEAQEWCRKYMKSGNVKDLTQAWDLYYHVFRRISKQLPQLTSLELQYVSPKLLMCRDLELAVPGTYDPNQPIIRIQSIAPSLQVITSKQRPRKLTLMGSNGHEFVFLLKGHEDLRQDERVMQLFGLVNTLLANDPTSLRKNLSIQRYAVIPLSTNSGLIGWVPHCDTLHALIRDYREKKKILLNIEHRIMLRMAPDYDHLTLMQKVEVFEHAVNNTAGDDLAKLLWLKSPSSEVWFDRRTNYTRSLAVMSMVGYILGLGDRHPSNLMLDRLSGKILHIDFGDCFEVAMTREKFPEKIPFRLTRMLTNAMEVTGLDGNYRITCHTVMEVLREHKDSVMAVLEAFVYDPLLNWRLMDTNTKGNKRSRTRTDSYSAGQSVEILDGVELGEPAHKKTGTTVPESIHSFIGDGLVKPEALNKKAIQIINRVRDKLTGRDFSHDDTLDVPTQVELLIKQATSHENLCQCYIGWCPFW
Description for FRAP1/mTOR: IC50s for mTOR interacting compounds were assessed using the FRAP1/mTOR TR-FRET tracer assay (Invitrogen by Life Technologies). […] Compounds were serially diluted in DMSO (12-point, 4× dilution factor) and 1 μL of diluted compound was then added to each well and mixed by pipetting using a Biomek FX (Beckman Coulter).
Description for PI3Kα: L-a-phosphatidylinositol (PI), provided as 10 mg/ml solution in methanol, was transferred into a glass tube and dried under nitrogen beam. It was then resuspended in 3% OctylGlucoside (OG) by vortexing and stored at 4° C. The KinaseGlo Luminescent Kinase Assay (Promega, Madison/WI, USA) is a homogeneous HTS method of measuring kinase activity by quantifying the amount of ATP remaining in solution following a kinase reaction.
Kinase reactions were started by addition of 5 μl of ATP-mix containing in a final volume 10 μL 10 mM TRIS-HCl pH 7.5, 3 mM MgCl2, 50 mM NaCl, 0.05% CHAPS, 1 mM DTT and 1 μM ATP, and occurred at room temperature.
The PI3Kα construct is a fusion of p85α iSH2 domain and the respective p110 isoform. The p85α fragment and p110 isoform gene were generated by PCR from first strand cDNA generated by RT-PCR from commercial RNA from placenta, testis and brain as described below.
The p85 fragment was derived from plasmid p1661-2 digested with Nhe/Spe. The p110α fragment derived from its clone was verified by sequencing and used in LR410 as a SpeI/HindIII fragment. For the generation of the baculovirus expression vector LR410 the gateway LR reaction to transfer the insert into the Gateway adapted pBlueBac4.5 (Invitrogen) vector was used. The cloning vector pBlueBac4.5 (Invitrogen) was digested with Nhe/HindIII. […] The two reverse primers overlap and incorporate a 12×Gly linker and the N-terminal sequence of the p110α gene to the SpeI site. The PCR fragment was cloned into pCR2.1 TOPO (Invitrogen). Of the resulting clones, p1661-2 was determined to be correct by sequencing. This plasmid was digested with Nhe and SpeI and the resulting fragment was gel-isolated and purified for sub-cloning.
PI3Kα was purified in two chromatographic steps: immobilized metal affinity chromatography (IMAC) on a Ni sepharose resin (GE Healthcare) and gel filtration utilizing a Superdex 200 26/60 column (GE Healthcare). All buffers were chilled to 4° C. and lysis was performed chilled on ice. Column fractionation was performed at room temperature.

In the case of `CC1(C)COCCN1c1nc(N2CCOCC2)nc2[nH]c(-c3cccc4[nH]ccc34)nc12` [Example 40, 6-(3,3-Dimethyl-morpholin-4-yl)-8-(1H-indol-4-yl)-2-morpholin-4-yl-9H-purine], the IC50 amounted to 350 nM against FRAP1/mTOR, 6470 nM against PI3Kα and 841 nM in test [1]. For the same molecule, the EC50 with H4 mCherry-GFP-LC3 cells (setting [2]) was above 8000 nM.

As to `CC(O)c1cccc(-c2nc3c(N4CCOC[C@@H]4C)nc(N4CCOCC4)nc3[nH]2)c1` (stereo partly drawn) [Example 12, 1-{3-[6-((S)-3-Methyl-morpholin-4-yl)-2-morpholin-4-yl-9H-purin-8-yl]-phenyl}-ethanol], the values for the IC50 (against FRAP1/mTOR; on PI3Kα; in test [1]) were 2020 nM, 2870 nM and 1960 nM, respectively. Also, the EC50 in the test on H4 mCherry-GFP-LC3 cells (setting [3]) was above 10000 nM.

As to `C[C@@H]1COCCN1c1nc(N2CCOCC2)c2nc(-c3cccc4[nH]ccc34)[nH]c2n1` [Example 47, 8-(1H-Indol-4-yl)-2-((R)-3-methyl-morpholin-4-yl)-6-morpholin-4-yl-9H-purine], the values for the IC50 (at FRAP1/mTOR; on PI3Kα; in test [1]) were 60 nM, 60 nM and 111 nM, respectively. The molecule also displayed a concentration for a half-maximal effect (EC50) with H4 mCherry-GFP-LC3 cells (setting [2]) of 461 nM.

In the case of `NCc1cccc(-c2nc3c(N4CCOCC4)nc(N4CCOCC4)nc3[nH]2)c1` [Example 11, 3-(2,6-Di-morpholin-4-yl-9H-purin-8-yl)-benzylamine], the IC50 at FRAP1/mTOR turned out to be 2420 nM; against PI3Kα, 8140 nM; in test [1] it was 6020 nM. Also, the EC50 in the test with H4 mCherry-GFP-LC3 cells (setting [3]) was above 2000 nM.

As to `C[C@@H]1COCCN1c1nc(N2CCOCC2)nc2[nH]c(-c3ccc4cc[nH]c4c3)nc12` [Example 21, 8-(1H-Indol-6-yl)-6-((R)-3-methyl-morpholin-4-yl)-2-morpholin-4-yl-9H-purine], the 50% inhibitory concentration (IC50) on FRAP1/mTOR is 237 nM; against PI3Kα it was above 9100 nM; in test [1], 831 nM. Also, the 50% effective concentration (EC50) in the test on H4 mCherry-GFP-LC3 cells (setting [3]) is 498 nM.

For the molecule `C[C@H]1COCCN1c1nc(N2CCOCC2)nc2[nH]c(-c3cccc4[nH]ccc34)nc12` [Example 23, 8-(1H-Indol-4-yl)-6-((S)-3-methyl-morpholin-4-yl)-2-morpholin-4-yl-9H-purine], the IC50 was found to be 14 nM on FRAP1/mTOR, 5510 nM at PI3Kα and 138 nM in test [1]. A half-maximal effect in the test on H4 mCherry-GFP-LC3 cells (setting [3]) (EC50) was put at 1610 nM.

On to `C[C@H]1COCCN1c1nc(N2CCOC[C@@H]2C)c2nc(-c3ccc4cc[nH]c4c3)[nH]c2n1` [Example 14, 8-(1H-Indol-6-yl)-2,6-bis-((S)-3-methyl-morpholin-4-yl)-9H-purine], for which the values for the IC50 (at FRAP1/mTOR; at PI3Kα; in test [1]) were 7 nM, above 9100 nM and 349 nM, respectively. The molecule further yielded an EC50 in the test on H4 mCherry-GFP-LC3 cells (setting [3]) of 1280 nM.

Regarding `C[C@@H]1COCCN1c1nc(N2CCOC[C@H]2C)c2nc(-c3cccc4[nH]ccc34)[nH]c2n1` [Example 15, 8-(1H-Indol-4-yl)-2,6-bis-((R)-3-methyl-morpholin-4-yl)-9H-purine], the values for the IC50 (against FRAP1/mTOR; against PI3Kα; in test [1]) were 9 nM, 4580 nM and 62 nM, respectively. In the test with H4 mCherry-GFP-LC3 cells (setting [3]), this molecule yielded a concentration for a half-maximal effect (EC50) of 1780 nM.

As for `Oc1cccc(-c2cc3c(N4CCOCC4)nc(N4CCOCC4)nc3[nH]2)c1` [Example 2, 3-(2,4-Di-morpholin-4-yl-7H-pyrrolo[2,3-d]pyrimidin-6-yl)-phenol], the values for the IC50 (at FRAP1/mTOR; at PI3Kα; in test [1]) were 40 nM, 1060 nM and 300 nM, respectively. In addition, a half-maximal effect in the test on H4 mCherry-GFP-LC3 cells (setting [3]) (EC50) was put at 363 nM.

As to `c1cc(-c2nc3c(N4C5CCC4COC5)nc(N4CCOCC4)nc3[nH]2)c2cc[nH]c2c1` [Example 54, 8-(1H-Indol-4-yl)-2-morpholin-4-yl-6-(3-oxa-8-aza-bicyclo[3.2.1]oct-8-yl)-9H-purine], the IC50 was 150 nM against FRAP1/mTOR, 5790 nM against PI3Kα and 309 nM in test [1]. In the test on H4 mCherry-GFP-LC3 cells (setting [2]), this molecule showed an EC50 of 1250 nM.

As to `c1cc(-c2cc3c(N4CCOCC4)nc(N4CCOCC4)nc3[nH]2)c2cc[nH]c2c1` [Example 56, 6-(1H-Indol-4-yl)-2,4-di-morpholin-4-yl-7H-pyrrolo[2,3-d]pyrimidine], the concentration for half-maximal inhibition (IC50) against FRAP1/mTOR is 2390 nM; against PI3Kα, 2010 nM; in test [1], 174 nM. The molecule also displayed an EC50 with H4 mCherry-GFP-LC3 cells (setting [2]) of 3650 nM.

For `C[C@H]1COCCN1c1nc(N2CCOCC2)nc2[nH]c(-c3cc(CO)ccc3Cl)nc12` [Example 10, {4-Chloro-3-[6-((S)-3-methyl-morpholin-4-yl)-2-morpholin-4-yl-9H-purin-8-yl]-phenyl}-methanol], the 50% inhibitory concentration (IC50) at FRAP1/mTOR turned out to be 1840 nM; at PI3Kα, 720 nM; in test [1] it was 5720 nM. The EC50 in the test with H4 mCherry-GFP-LC3 cells (setting [3]) was above 10000 nM.

`C[C@@H]1COCCN1c1nc(N2CCOC[C@@H]2C)nc2[nH]c(-c3ccc4cc[nH]c4c3)nc12` [Example 44, 8-(1H-Indol-6-yl)-2-((S)-3-methyl-morpholin-4-yl)-6-((R)-3-methyl-morpholin-4-yl)-9H-purine]: the figures for the concentration for half-maximal inhibition (IC50) (against FRAP1/mTOR; against PI3Kα; in test [1]) were 140 nM, 5950 nM and 388 nM, respectively. Besides, the half-maximal effective concentration (EC50) in the test on H4 mCherry-GFP-LC3 cells (setting [2]) was found to be 395 nM.

Take `C[C@H]1COCCN1c1nc(N2CCOCC2)nc2[nH]c(-c3ccc(F)c(CO)c3)nc12` [Example 4, {2-Fluoro-5-[6-((S)-3-methyl-morpholin-4-yl)-2-morpholin-4-yl-9H-purin-8-yl]-phenyl}-methanol]: the half-inhibitory concentration (IC50) against FRAP1/mTOR is 1420 nM; on PI3Kα, 1800 nM; in test [1] it was 1860 nM. Also, the half-maximal effective concentration (EC50) in the test on H4 mCherry-GFP-LC3 cells (setting [3]) turned out to be 1550 nM.

Take `CS(=O)(=O)Nc1cccc(-c2nc3c(N4CCOCC4)nc(N4CCOCC4)nc3[nH]2)c1` [Example 33, N-[3-(2,6-Di-morpholin-4-yl-9H-purin-8-yl)-phenyl]-methanesulfonamide]: the IC50 on FRAP1/mTOR is 380 nM; at PI3Kα it was above 9100 nM; in test [1], 2990 nM. In the test with H4 mCherry-GFP-LC3 cells (setting [3]), this molecule gave a concentration giving a half-maximal response (EC50) of 7730 nM.
